Assays:
Huh7 and MCF7 = test: SRB cytotoxicity, summary for both cell lines; format: cell-based; conditions: Homo sapiens; one value or range for Huh7 and MCF7 together; read-out: IC50 against both cell lines
Method: (§1) Mahlavu, FOCUS, SNU475 (1000 cell/well in 150 μL/well); Huh7, MCF7 (2500 cell/well in 150 μL/well); HepG2, Hep3B, SKBR3 (3000 cell/well in 150 μL/well); PLC-PRF-5, Hep40 (5000 cell/well in 150 μL/well); MDA-MB-231, MDA-MB-468, MCF10A (6000 cell/well in 150 μL/well); and ZR-75 (7500 cell/well in 150 μL/well) were cultured in 96-well plates and were inoculated in an incubator for 24 hours. The compounds were dissolved in dimethyl sulfoxide (DMSO) (Sigma, St Louis, MO) as a 20 mM stock solution. The treatment of cells with the compounds was done in a concentration range starting from 40 to 2.5 μM. The compounds which were below 2.5 μM were tested in a concentration range from 2.5 to 0.15 μM. End of the 72h compound treatment, the cells were fixed using 10% (v/v) trichloroacetic acid (MERCK) for an hour and washed with ddH2O, and left for air-drying. The fixed plates were stained with 50 μL of sulforhodamine B (SRB) solution (Sigma) at RT for 10 min. To remove unbound SRB dye, acetic acid was used to wash cells three times and left for drying. The protein-bound SRB was solubilized with 10 mM Tris-base (Sigma) and their absorbance was measured with a 96-well plate reader at 515 nm wavelength (ELx800, Biotek). The IC50 values of compounds were calculated in comparison with control group DMSO. Data with R^2 values larger than 0.9 are considered significant.

Huh7 = test: SRB cytotoxicity assay; format: cell-based, human; conditions: 72 h treatment
Method: (§2) HepG2, FOCUS, Hep3B, Mahlavu, Huh7, Hep40, and PLC-PRF-5 hepatocellular carcinoma cells; MCF-7, MDA-MB-231, MDA-MB-468, SKBR3, and ZR-75 breast cancer cells; and normal-like epithelial MCF-10A breast cells were cultured in low-glucose Dulbecco’s modified Eagle’s medium (DMEM) (Biological Industries-BI) supplemented with 10% fetal bovine serum (FBS) (Gibco/Thermo Fisher Scientific), 2 mM L-Glutamine (Gibco/Thermo Fisher Scientific), 100 Units/mL Penicillin/Streptomycin, and 0.1 mM non-essential amino acid (Gibco/Thermo Fisher Scientific). SNU475 hepatocellular carcinoma cells were maintained in RPMI (Biological Industries-BI) supplemented with 10% fetal bovine serum (FBS) (Gibco/Thermo Fisher Scientific), L-Glutamine (Gibco/Thermo Fisher Scientific), and 100 Units/mL Penicillin/Streptomycin, while ZR-75 breast cancer cells were cultured RPMI (Biological Industries-BI) supplemented with 10% fetal bovine serum (FBS) (Gibco/Thermo Fisher Scientific), 1× sodium pyruvate, and %4.5 glucose. Normal-like MCF-10A breast cells were sustained in DMEM/HAM’S F12 (Hyclone) supplemented with 10% fetal bovine serum (FBS) (Gibco/Thermo Fisher Scientific), EGF (20 ng/mL), Hydrocortisone ([…]), cholera toxin (100 ng/mL), insulin (10 μg/mL), and 100 Units/mL Penicillin/Streptomycin. The cells were cultivated at 37 °C in a humidified incubator under 5% CO2.
as §1

MCF7 = test: SRB cytotoxicity assay; format: cell-based, human; conditions: Homo sapiens, MCF7, 72 h, 72 h treatment
Method: as §2, §1

Mahlavu = test: SRB cytotoxicity assay; format: cell-based, human; conditions: Homo sapiens, Mahlavu, 72 h, 72 h treatment
Method: as §2, §1

Huh7, Mahlavu and MCF7 = test: SRB cytotoxicity, summary for all three cell lines; format: cell-based; conditions: Homo sapiens; one value or range for Huh7, Mahlavu and MCF7 together; read-out: IC50 against all three cell lines
Method: as §1

SMILES: Cc1onc(-c2ccc(OCc3ccccc3)cc2)c1-c1ccc(Cl)cc1 [compound 9, 3-(4-(Benzyloxy)phenyl)-4-(4-chlorophenyl)-5-methylisoxazole]
- melting point: 114.7 to 115.7 °C
- IC50 (Huh7 and MCF7): ≥ 20 µM
- IC50 (Huh7): > 20 µM
- IC50 (Huh7; Homo sapiens, Huh-7, 72 h): ≥ 20 µM
- IC50 (MCF7): > 20 µM

SMILES: Cc1cccc(COc2ccc(-c3noc(C)c3-c3ccc(Cl)cc3)cc2)c1 [compound 19, 4-(4-Chlorophenyl)-5-methyl-3-(4-((3-methylbenzyl)oxy)phenyl)isoxazole]
- melting point: 119.9 to 121 °C
- IC50 (Huh7 and MCF7): ≥ 20 µM
- IC50 (Huh7; Homo sapiens, Huh-7, 72 h): > 20 µM
- IC50 (MCF7): > 20 µM

SMILES: Cc1ccc(COc2ccc(-c3noc(C)c3-c3ccc(Cl)cc3)cc2)cc1 [compound 24, 4-(4-Chlorophenyl)-5-methyl-3-(4-((4-methylbenzyl)oxy)phenyl)isoxazole]
- melting point: 116.9 to 118.5 °C
- IC50 (Huh7 and MCF7): ≥ 20 µM
- IC50 (Huh7; Homo sapiens, Huh-7, 72 h): > 20 µM
- IC50 (MCF7): > 20 µM

SMILES: Cc1ccccc1COc1ccc(-c2noc(N)c2-c2ccc(Cl)cc2)cc1 [compound 65, 4-(4-Chlorophenyl)-3-(4-((2-methylbenzyl)oxy)phenyl)isoxazole-5-amine]
- melting point: 163.1 to 165.6 °C
- IC50 (Huh7; Homo sapiens, Huh-7, 72 h): 2 µM
- IC50 (MCF7): 3.6 µM
- IC50 (Mahlavu): 3.9 µM
- IC50 (Huh7, Mahlavu and MCF7): 2 to 3.9 µM

SMILES: Cc1ccccc1COc1ccc(-c2c(-c3ccc(Cl)cc3)noc2C)cc1 [compound 67, 3-(4-Chlorophenyl)-5-methyl-4-(4-((2-methylbenzyl)oxy)phenyl)isoxazole]
- melting point: 84.5 to 86.5 °C
- IC50 (Huh7; Homo sapiens, Huh-7, 72 h): > 20 µM
- IC50 (MCF7): > 20 µM
- IC50 (Mahlavu): > 20 µM
- IC50 (Huh7, Mahlavu and MCF7): ≥ 20 µM

SMILES: Cc1cc(-c2ccc(OCc3ccccc3C)cc2)n(-c2ccc(Cl)cc2)n1 [compound 69, 1-(4-Chlorophenyl)-3-methyl-5-(4-((2-methylbenzyl)oxy)phenyl)-1H-pyrazole]
- melting point: 111.8 to 113.6 °C
- IC50 (Huh7; Homo sapiens, Huh-7, 72 h): 2 µM
- IC50 (MCF7): 11.9 µM
- IC50 (Mahlavu): 9.2 µM
- IC50 (Huh7, Mahlavu and MCF7): 0.7 to 14.4 µM

SMILES: Cc1ccccc1COc1ccc(-c2[nH]ncc2-c2ccc(Cl)cc2)cc1 [compound 71, 4-(4-Chlorophenyl)-5-(4-((2-methylbenzyl)oxy)phenyl)-1H-pyrazole]
- melting point: 127.8 to 129.8 °C
- IC50 (Huh7; Homo sapiens, Huh-7, 72 h): 8.4 µM
- IC50 (MCF7): 17.5 µM
- IC50 (Mahlavu): 11 µM
- IC50 (Huh7, Mahlavu and MCF7): 0.7 to 14.4 µM

SMILES: Cc1ccccc1COc1ccc(-c2nn(C)cc2-c2ccc(Cl)cc2)cc1 [compound 72, 4-(4-Chlorophenyl)-1-methyl-3-(4-((2-methylbenzyl)oxy)phenyl)-1H-pyrazole]
- melting point: 142.2 to 143.4 °C
- IC50 (Huh7; Homo sapiens, Huh-7, 72 h): 6.7 µM
- IC50 (MCF7): 14.4 µM
- IC50 (Mahlavu): 12 µM
- IC50 (Huh7, Mahlavu and MCF7): 0.7 to 14.4 µM

SMILES: Cc1cc(-c2ccc(Cl)cc2)n(-c2ccc(OCc3ccccc3C)cc2)n1 [compound 79, 5-(4-Chlorophenyl)-3-methyl-1-(4-((2-methylbenyl)oxy)phenyl)-1H-pyrazole]
- melting point: 103.4 to 105.2 °C
- IC50 (Huh7; Homo sapiens, Huh-7, 72 h): 3.9 µM
- IC50 (MCF7): 11.8 µM
- IC50 (Mahlavu): 9.6 µM
- IC50 (Huh7, Mahlavu and MCF7): 0.7 to 14.4 µM

SMILES: Cc1ccccc1COc1ccc(-c2ccnn2-c2ccc(Cl)cc2)c(F)c1 [compound 88, 1-(4-Chlorophenyl)-5-(2-fluoro-4-((2-methylbenzyl)oxy)phenyl)-1H-pyrazole]
- melting point: 131.8 to 132.8 °C
- IC50 (Huh7; Homo sapiens, Huh-7, 72 h): 1.6 µM
- IC50 (MCF7): 6.4 µM
- IC50 (Mahlavu): 3.2 µM
- IC50 (Huh7, Mahlavu and MCF7): 1.6 to 6.4 µM

SMILES: Cc1ccccc1CNc1ccc(-c2ccnn2-c2ccc(Cl)cc2)cc1 [compound 92, 4-(1-(4-Chlorophenyl)-1H-pyrazol-5-yl)-N-(2-methylbenzyl)aniline]
- melting point: 141.5 to 142.8 °C
- IC50 (Huh7; Homo sapiens, Huh-7, 72 h): 3.6 µM
- IC50 (MCF7): > 20 µM
- IC50 (Mahlavu): 4.5 µM

Source: article PMC9583322, “Vicinal Diaryl-Substituted Isoxazole and Pyrazole Derivatives with In Vitro Growth Inhibitory and In Vivo Antitumor Activity” (ACS Omega, 2022)
